Numbers after ± are expanded uncertainties.
Conditions: 88 kPa, Liquid, Vibrating tube method

SMILES | mass density (298.15 K) [kg/m3] | mass density (313.15 K) [kg/m3] | mass density (333.15 K) [kg/m3]
CCCCCCCCn1cc[n+](C)c1.O=[N+]([O-])[O-] [1-methyl-3-octylimidazolium nitrate] | 1063.86 ± 4.1 | 1054.55 ± 4.1 | 1042.42 ± 4.1
CCCCCCn1cc[n+](C)c1.N#C[S-] [1-hexyl-3-methylimidazolium thiocyanate] | 1036.21 ± 4.1 | 1027.55 ± 4.1 | 1016.12 ± 4.1
CCCCn1cc[n+](C)c1.F[B-](F)(F)F [1-butyl-3-methylimidazolium tetrafluoroborate] | 1202.71 ± 4.2 | 1192.29 ± 4.2 | 1178.73 ± 4.2

From the NIST ThermoML archive (doi:10.1021/acs.jced.5b00894)
